Data: publication PMC11016868 (Computational and Structural Biotechnology Journal, 2024)
Values after ≈ are worked out from the molar mass of the structure shown.

Test system: M. marinum (NTUH-M6885)
Assay: Minimum inhibitory concentration, broth microdilution
Type: cell-based
Conditions: Mycobacterium marinum, 7H9 broth, 28 °C

Row | Compound | MIC [µg/mL]
1 | CO[C@H]1/C=C/O[C@@]2(C)Oc3c(C)c(O)c4c(O)c(c(/C=N/N5CCN(C)CC5)c(O)c4c3C2=O)NC(=O)/C(C)=C\C=C\[C@H](C)[C@H](O)[C@@H](C)[C@@H](O)[C@@H](C)[C@H](OC(C)=O)[C@@H]1C [rifampicin] | 2 (≈ 2.43 µM)
2 | O=C(O)c1cn(C2CC2)c2cc(N3CCNCC3)c(F)cc2c1=O [ciprofloxacin] | 8 (≈ 24.1 µM)
